# Literature values as cited in patent US8815282B1, “Commercial method for production of room temperature-liquid cetyl myristoleate” (priority 2005, dated 2014).
# Tested on: arthritis in mice
# Settings: pure CMO, Pharmacological Research 47 (2003) 43-47
structure (smiles),measurement,value
"CCCC/C=C\CCCCCCCC(=O)OCCCCCCCCCCCCCCCC [CMO, cetyl myristoleate]",incidence and severity of arthritis,significant reduction in the incidence and severity of arthritis
